Measured values taken from patent publication US20100003711A1, “Methods to identify therapeutic agents” (THE SCRIPPS RESEARCH INSTITUTE, priority 2005, published 2010).

Legend:
neuronal cell lines = assay: Cytotoxicity towards neuronal cell lines (similar procedures); assay type: cell-based
[1] = test system: Class A scavenger receptor (SR-A); assay: Scavenger receptor expression by flow cytometry, SR-A; assay type: cell-based, murine; details: cultured macrophages, compound in the absence of LDL
Description: Cell surface CD36 and SR-A were measured by flow cytometry using CD36 (BD Biosciences Pharmingen, San Diego, Calif.) and CD204 (Serotec, Oxford, UK) specific monoclonal antibodies. See Liao et al. (2000) Arterioscler. Thromb. Vasc. Biol. 20: 1968-75; Hu et al. (1996) Blood 87: 2020-28. Murine macrophage J774A.1 cells were serum-starved overnight in media with 0.5% BSA. Cells (1×10^6) treated with cholesterol ozonation products or cholesterol ozonation product complexed with LDL for specified times were then washed twice with PBS. […] Expression of either CD36 or SR-A was determined with CD36 (BD Biosciences Pharmingen, San Diego, Calif.) and CD204 (Serotec, Oxford, U.K.) specific monoclonal antibodies, respectively. After washing off the primary antibody, secondary antibodies were added, cells were washed again, then analyzed on a FACS calibur 2 (Becton Dickinson, Sparks, Md.) flow cytometer and analyzed by CellQuant software. Results were expressed as mean fluorescence intensity±standard error of the mean (SEM) of at least duplicate determinations. Significance was determined using a student two-tail t test, with (*) indicating p<0.05, and (**) indicating p<0.01 versus the control.

CD36 = assay: Scavenger receptor expression by flow cytometry, CD36; assay type: cell-based, murine
Description: Cell surface CD36 and SR-A were measured by flow cytometry using CD36 (BD Biosciences Pharmingen, San Diego, Calif.) and CD204 (Serotec, Oxford, UK) specific monoclonal antibodies. See Liao et al. (2000) Arterioscler. Thromb. Vasc. Biol. 20: 1968-75; Hu et al. (1996) Blood 87: 2020-28. Murine macrophage J774A.1 cells were serum-starved overnight in media with 0.5% BSA. Cells (1×10^6) treated with cholesterol ozonation products or cholesterol ozonation product complexed with LDL for specified times were then washed twice with PBS. After harvesting the cells by scraping, they were fixed with 6% paraformaldehyde for 20 min; Cells were then resuspended in PBS containing 2% heat-inactivated FCS, 0.05% NaN3 and appropriate primary antibody, antibody conjugate or isotype control (1:100 dilution) and incubated on ice for 30 min. Expression of either CD36 or SR-A was determined with CD36 (BD Biosciences Pharmingen, San Diego, Calif.) and CD204 (Serotec, Oxford, U.K.) specific monoclonal antibodies, respectively. After washing off the primary antibody, secondary antibodies were added, cells were washed again, then analyzed on a FACS calibur 2 (Becton Dickinson, Sparks, Md.) flow cytometer and analyzed by CellQuant software. Results were expressed as mean fluorescence intensity±standard error of the mean (SEM) of at least duplicate determinations. Significance was determined using a student two-tail t test, with (*) indicating p<0.05, and (**) indicating p<0.01 versus the control.

VCAM-1 (CD106) = assay: Endothelial adhesion molecule expression by ELISA, VCAM-1; assay type: cell-based, human
Description: (§1) Endothelial cell surface adhesion molecule expression was measured by ELISA, using anti-human CD54 (ICAM-1), CD106 (VCAM-1) and CD62E (E-Selectin) antibodies (Leinco Technologies, Inc., St. Louis, Mo.). The ELISA method was modified from previously described procedures.
(§2) Cells were then incubated with antibodies to VCAM-1, E-selectin, or ICAM-1 diluted 1:400 in PBS containing 5% FCS at 37° C. for 30 min. Wells were washed two times with PBS, then incubated with horseradish peroxidase (HRP)-conjugated goat anti-mouse IgG (Southern Biotechnology Associates, Birmingham, Ala., USA) in PBS/5% FCS at 37° C. for 30 min. The wells were washed four times with PBS, then incubated with H2O2/3,3′,5,5′-tetramethyl-benzidine peroxidase substrate (Pierce Chemical, Rockford, Ill., USA) for 30 min in the dark. The reaction was stopped by adding 25 μl of 8 N H2SO4, and the plates read on a microplate reader, blanking on wells stained with only secondary antibody. Each assay was performed in triplicate and the data are reported as the mean±SEM as a percentage of the expression level of the vehicle. To study the effect of cholesterol ozonation product 5a concentration (5-50 μM) on E-selectin expression, the assay was performed in an identical fashion as described above, with each point being the mean±SEM of at least duplicate measurements.

ICAM-1 (CD54) = assay: Endothelial adhesion molecule expression by ELISA, ICAM-1; assay type: cell-based, human
Description: as §1, §2

THP-1 monocytes = assay: Monocyte morphology changes (differentiation into macrophages); assay type: cell-based, human; details: 12.5 or 25 μM, up to 7 days
Description: THP-1 monocytes in suspension were plated in 8-well chambered slides. […] Media containing appropriate treatment compounds was replaced after 4 days. After 4 days treatment, morphologic changes of the adherent cells were assessed by phase-contrast microscopy and photographed using an Olympus Microfire digital camera.

[2] = HAAE-1, 25 μM compound in the presence of LDL, 4 h

Compound: CC(C)CCC[C@@H](C)[C@H]1CCC2C(CC=O)C([C@@]3(C)CC[C@H](O)CC3=O)CC[C@@]21C (stereo partly drawn) [4a, 3βHydroxy-5-oxo-5,6-secocholestan-6-al]
- cytotoxicity towards neuronal cell lines (neuronal cell lines): cytotoxic
- SR-A expression [1]: did not increase expression of either receptor
- CD36 expression (CD36; J774A.1, 25 μM compound complexed with LDL (100 μg/ml protein), 6 h): little or no effect
- CD36 expression (CD36; cultured macrophages, compound in the absence of LDL): did not increase expression of either receptor
- VCAM-1 levels (VCAM-1 (CD106); [2]): remain unchanged
- integrin expression (VCAM-1) (VCAM-1 (CD106); HAAE-1, not complexed with LDL): no effects
- ICAM-1 levels (ICAM-1 (CD54); [2]): remain unchanged
- integrin expression (ICAM-1) (ICAM-1 (CD54); HAAE-1, not complexed with LDL): no effects
- THP-1 monocyte differentiation into macrophages (adherence, morphology) (THP-1 monocytes): neither became adherent nor developed the aforementioned morphological changes
